Results taken from ChEMBL document CHEMBL3352746, “Synthesis and anticancer activity of quinopimaric and maleopimaric acids’ derivatives” (Bioorg Med Chem, 2014).
Calls of active or inactive are those of the source. No cut-off for these calls is given here.

Experiments:
Type in all cases: functional
SR = experiment: Cytotoxicity against human SR cells assessed as cell growth at 10 uM; conditions: read-out: Activity
NCI60 = experiment: (§1) Cytotoxicity against human NCI60 cells assessed as cell growth at 10 uM
[1] = as §1; conditions: read-out: Activity
RPMI-8226 = experiment: Cytotoxicity against human RPMI8226 cells assessed as cell growth at 10 uM; conditions: read-out: Activity
HCC 2998 = experiment: Cytotoxicity against human HCC2998 cells assessed as cell growth at 10 uM; conditions: read-out: Activity
T47D = experiment: Cytotoxicity against human T47D cells assessed as cell growth at 10 uM; conditions: read-out: Activity
TK-10 = experiment: Cytotoxicity against human TK10 cells assessed as cell growth at 10 uM; conditions: read-out: Activity
[2] = Cytotoxicity against human HL60 cells assessed as cell growth at 10 uM; conditions: HL-60, read-out: Activity

SMILES	growth at 10 µM [1] [%]	also measured
COC(=O)[C@]1(C)CCC[C@]2(C)[C@H]3C[C@H]4C(C(C)C)=C[C@]3(CC[C@H]21)[C@@H]1C(=O)[C@H]2O[C@H]2C(=O)[C@@H]14		growth at 10 µM (SR): 8.07%; Activity (NCI60): Active
COC(=O)[C@]1(C)CCC[C@]2(C)[C@H]3C[C@@H]4[C@H]5[C@@H]6CC/C(=N\O)[C@H]5[C@@]3(CC[C@H]21)CC4(C(C)C)O6	> 32	
COC(=O)[C@]1(C)CCC[C@]2(C)[C@H]3C[C@H]4C(C(C)C)=C[C@]3(CC[C@H]21)[C@@H]1/C(=N/O)CC[C@H](O)[C@@H]14	> 32	
COC(=O)[C@]1(C)CCC[C@]2(C)[C@H]3C[C@H]4C(C(C)C)=C[C@]3(CC[C@H]21)[C@@H]1/C(=N/O)CCC2(OCCO2)[C@@H]14		growth at 10 µM (RPMI-8226): 3.94%; growth at 10 µM (HCC 2998): -9.91%; growth at 10 µM (T47D): 30.7%; Activity (NCI60): Active
COC(=O)[C@]1(C)CCC[C@@]2(C)[C@H]1CC[C@]13C=C(C(C)C)[C@H](C[C@H]21)C1=C3C(=O)C=CC1=O		growth at 10 µM (SR): 15.6%; Activity (NCI60): Active
COC(=O)[C@]1(C)CCC[C@]2(C)[C@H]3C[C@H]4C(C(C)C)=C[C@]3(CC[C@H]21)[C@@H]1c2[nH]c3ccccc3c2CC(=O)[C@@H]14	> 32	
COC(=O)[C@]1(C)CCC[C@]2(C)[C@H]3C[C@@H]4[C@H]5[C@@H]6Cc7[nH]c(=S)[nH]c7[C@H]5[C@@]3(CC[C@H]21)CC4(C(C)C)O6	> 32	
COC(=O)[C@]1(C)CCC[C@]2(C)[C@H]3C[C@H]4C5C[C@]3(CC[C@H]21)[C@@H]1/C(=N/O)CC[C@H](OC5(C)C)[C@@H]14	> 32	
COC(=O)CCNC(=O)[C@]1(C)CCC[C@]2(C)[C@H]3C[C@H]4C(C(C)C)=C[C@]3(CC[C@H]21)[C@@H]1C(=O)CCC(=O)[C@@H]14	> 32	
COC(=O)[C@]1(C)CCC[C@]2(C)[C@H]3C[C@H]4C5C[C@]3(CC[C@H]21)[C@@H]1C(=O)CC[C@H](OC5(C)C)[C@@H]14	> 32	
COC(=O)[C@]1(C)CCC[C@]2(C)[C@H]3C[C@@H]4[C@H]5[C@@H]6Cc7cnn(-c8ccccc8)c7[C@H]5[C@@]3(CC[C@H]21)CC4(C(C)C)O6	> 32	
COC(=O)[C@]1(C)CCC[C@]2(C)[C@H]3C[C@H]4C(C(C)C)=C[C@]3(CC[C@H]21)[C@@H]1NC(=O)CCC2(OCCO2)[C@@H]14	> 32	
COC(=O)[C@]1(C)CCC[C@]2(C)[C@H]3C[C@H]4C(C(C)C)=C[C@]3(CC[C@H]21)[C@@H]1c2[nH]c3ccccc3c2-c2c([nH]c3ccccc23)[C@@H]14	> 32	
COC(=O)CCNC(=O)[C@]1(C)CCC[C@]2(C)[C@H]3C[C@H]4C(C(C)C)=C[C@]3(CC[C@H]21)[C@@H]1C(=O)CC[C@H](O)[C@@H]14	> 32	
COC(=O)[C@]1(C)CCC[C@]2(C)[C@H]3C[C@@H]4[C@H]5[C@@H]6Cc7cn[nH]c7[C@H]5[C@@]3(CC[C@H]21)CC4(C(C)C)O6	> 32	
CC(C)C1=C[C@@]23CC[C@@H]4[C@](C)(CCC[C@@]4(C)C(=O)O)[C@H]2C[C@@H]1[C@H]1C(=O)CCC(=O)[C@H]13		growth at 10 µM (TK-10): 28.4%; Activity (NCI60): Active
COC(=O)C(CCSC)NC(=O)[C@]1(C)CCC[C@]2(C)[C@H]3C[C@H]4C(C(C)C)=C[C@]3(CC[C@H]21)[C@@H]1C(=O)CC[C@H](OC(=O)CCC(=O)O)[C@@H]14 (stereo not given in full)	> 32	
COC(=O)[C@]1(C)CCC[C@]2(C)[C@H]3C[C@H]4C(C(C)C)=C[C@]3(CC[C@H]21)[C@@H]1NC(=O)CC[C@H](O)[C@@H]14	> 32	
COC(=O)[C@]1(C)CCC[C@]2(C)[C@H]3C[C@@H]4[C@H]5[C@@H]6CCC(=O)[C@H]5[C@@]3(CC[C@H]21)CC4(C(C)C)O6	> 32	
COC(=O)[C@]1(C)CCC[C@]2(C)[C@H]3C[C@H]4C(C(C)C)=C[C@]3(CC[C@H]21)[C@@H]1C(=O)CCC2(OCCO2)[C@@H]14		growth at 10 µM [2]: 28.7%; growth at 10 µM (SR): 31.2%; Activity (NCI60): Active
CC(C)C1=C[C@]23CC[C@@H]4[C@](C)(CCC[C@@]4(C)C(=O)O)[C@H]2C[C@H]1[C@H]1C(=O)OC(=O)[C@H]13	> 32	
COC(=O)[C@]1(C)CCC[C@]2(C)[C@H]3C[C@@H]4[C@H]5[C@@H]6Cc7c([nH]c8ccccc78)[C@H]5[C@@]3(CC[C@H]21)CC4(C(C)C)O6	> 32	
